Source: ChEMBL document CHEMBL5120968, “Syzysamalactone, an Unusual 11-Carbon δ-Lactone Derivative from the Fresh Ripe Fruits of Syzygium samarangense (Wax Apple)” (J Nat Prod, 2022)

Test system: SH-SY5Y
Test: Neuroprotective activity against 6-OHDA induced cell death in human SH-SY5Y cells preincubated with 6-hyrdoxydopamine followed by compound addition and measured after 24 hrs by MTT assay
Type: functional, cell-based

SMILES: CCCCCc1cccc(=O)o1
- EC50: 1280 nM

SMILES: CC[C@H]1CCc2oc(=O)ccc2[C@H]1O
- EC50: 290 nM

SMILES: COc1cc(/C=C/C(=O)CC(=O)/C=C/c2ccc(O)c(OC)c2)ccc1O [CURCUMIN]
- EC50: 5290 nM
